Reference: US20130287918A1, “MICROBICIDAL COMPOSITION” (DUPONT NUTRITION DIOSCIENCES APS, priority 2010, published 2013)

What was measured:
Assay type in all cases: cell-based
[1] = tested on: Aspergillus parasiticus DCS 709; experiment: Minimal Inhibition Concentration Assay (MIC), 96 well liquid based; conditions: DCS709, in blend FP1000S, read-out: actual presence of the individual compound in the blend at MIC level
From the text: (§1) The target strains used for assessment of antimicrobial activity are isolates of different origin e.g. food spoilage isolates, spoilage organisms provided by a customer, national strain collections (e.g. DSMZ, ATCC) collected in the in house Danisco Culture Collection (DCS) (Danisco, Brabrand, Denmark), maintained at −86′C in suitable broth containing glycerol 50% (v/v). The strains were chosen to represent Gram negative and fungal strains. All species used were aerobic. Before each experiment, stock cultures were propagated through two consecutive growth cycles in suitable media and temperature. The overnight cultures are diluted in saline solution to obtain working cultures.
(§2) Mould spore inoculums were prepared as follows: approx. 2 ml of sterile demineralised water was used to wash the spores off an out-grown mould (minimum 5 day old plate). This suspension is transferred to a sterile container.
(§3) Yeast and mould strains were incubated at 25° C., and bacterial isolates were grown at 30° C. under aerobic conditions depending on the preferred conditions for the particular strain (Method no AP-002).
(§4) The Minimal Inhibition Concentration Assay (MIC) is a 96 well liquid based assay developed for an automated assessment system and performed essentially as described in (Method no AP-003). Indicator strains (table 2) are tested for inhibition of growth by the putative anti-microbial substances and combinations thereof, using a wide concentration range (depending on the compound), in this case by performing a ⅔-dilution series of each sample at pH 6.0 (±0.2)). From a 10 fold diluted overnight culture 5 μl of each strain was inoculated in one well corresponding to an approximate inoculation density of 10^3-10^4 cells/well. Media used were YM-broth for yeast and moulds and CASO-broth for bacterial isolates. Strains were incubated at 24° C. or 30° C. for 24 to 48 hours depending on the strain. The increase in optical density (O.D.) after incubation is compared to a growth control to estimate whether the substance has a bacteriostatic effect and to determine the MIC. […]

[2] = tested on: Aspergillus niger DCS 1115; experiment: as above; conditions: DCS1115, in blend FP1000S, read-out: actual presence of the individual compound in the blend at MIC level
From the text: as §1, §2, §3, §4

[3] = tested on: Aspergillus versicolor DCS 1069; experiment: as above; conditions: DCS1069, in blend FP1000S, read-out: actual presence of the individual compound in the blend at MIC level
From the text: as §1, §2, §3, §4

[4] = tested on: Escherichia coli DCS 495; experiment: as above; conditions: DCS495, read-out: actual presence of the individual compound in the blend at MIC level
From the text: as §1, §3
(§5) The Minimal Inhibition Concentration Assay (MIC) is a 96 well liquid based assay developed for an automated assessment system and performed essentially as described in (Method no AP-003). Indicator strains (table 2) are tested for inhibition of growth by the putative anti-microbial substances and combinations thereof, using a wide concentration range (depending on the compound), in this case by performing a ⅔-dilution series of each sample at pH 6.0 (±0.2)). From a 10 fold diluted overnight culture 5 μl of each strain was inoculated in one well corresponding to an approximate inoculation density of 10^3-10^4 cells/well. Media used were YM-broth for yeast and moulds and CASO-broth for bacterial isolates. Strains were incubated at 24° C. or 30° C. for 24 to 48 hours depending on the strain. The increase in optical density (O.D.) after incubation is compared to a growth control to estimate whether the substance has a bacteriostatic effect and to determine the MIC. MIC is defined as the lowest concentration of the antimicrobial that will inhibit measurable growth. A bacteriostatic effect is defined as the OD620 being less than or equal to 20% of the growth control after incubation.
(§6) To obtain more accurate estimates of the values, an Excel macro was used to process the raw data. The macro scans the raw data and finds the two concentrations that lie on either side of the O.D. 20% threshold value. It then pinpoints the actual concentration where the O.D. crosses the threshold, using linear correlation. All data are presented as the mean values of duplicates for each microorganism.
(§7) The MIC assays were run on a fully automated assessment system consisting of a 9-hotel Cytohotel (Thermo), a Biomek FxP pipetting robot (Beckman Coulter), an ORCA robotic arm on a 3 meter rails (Beckman Coulter), 2 Synergy HT spectrophotometers (Biotek), a Cytomat 6001 incubator (Thermo) and a Cytomat 2C incubator (Thermo).

[5] = tested on: Rhodotorula glutinis DCS 606; experiment: as above; conditions: DCS606, in blend FP1000S, read-out: actual presence of the individual compound in the blend at MIC level
From the text: as §1, §3, §5, §6, §7

[6] = tested on: Candida tropicalis DCS 604; experiment: as above; conditions: DCS604, in blend FP1000S, read-out: actual presence of the individual compound in the blend at MIC level
From the text: as §1, §3, §5, §6, §7

[7] = tested on: Debaryomyces hansenii DCS 605; experiment: as above; conditions: DCS605, in blend FP1000S, read-out: actual presence of the individual compound in the blend at MIC level
From the text: as §1, §3, §5, §6, §7

[8] = tested on: Saccharomyces cerevisiae DCS 599; experiment: as above; conditions: DCS599, in blend FP1000S, read-out: actual presence of the individual compound in the blend at MIC level
From the text: as §1, §3, §5, §6, §7

[9] = tested on: Candida parapsilosis DCS 1090; experiment: as above; conditions: Lodderomyces parapsilosis, DCS1090; in blend FP1000S; read-out: actual presence of the individual compound in the blend at MIC level
From the text: as §1, §3, §5, §6, §7

[10] = tested on: Salmonella enteritidis DCS 1152; experiment: as above; conditions: Salmonella enterica, in blend FP1000S, read-out: actual presence of the individual compound in the blend at MIC level
From the text: as §1, §3, §5, §6, §7

[11] = tested on: Pseudomonas fluorescens DCS 428; experiment: as above; conditions: DCS428, in blend FP1000S, read-out: actual presence of the individual compound in the blend at MIC level
From the text: as §1, §3, §5, §6, §7

[12] = tested on: Pichia anomala DCS 603; experiment: as above; conditions: Hansenula anomala, DCS603; in blend FP1000S; read-out: actual presence of the individual compound in the blend at MIC level
From the text: as §1, §3, §5, §6, §7

[13] = tested on: Saccharomyces servazzii; experiment: In vitro susceptibility of contaminant yeast by minimal inhibition concentrations; conditions: MicroGARD 200 at 1% (w/v); allyl isothiocyanate 0.01%; FP 1000-D1 at 1% (w/v)
Method: The dominating yeast in the control batch was traced back to Pichia spp., likely to be the added DCS 1175 strain. At what time point the contaminant yeast occurred is not known. The contaminant yeast. Saccharomyces servazzii, was tested in vitro for susceptibility towards MicroGARD® 200, allyl isothiocyanate, and the FP1000 variant FP 1000-D1 by determination of minimal inhibition concentrations (data not shown) The results confirmed a tolerance of the yeast against MicroGARD® 200 at 1% (w/v) and susceptibility towards allyl isothiocyanate 0.01% and FP 1000-D1 at 1% (w/v), respectively. Consequently, although eventually present in all batches, Saccharomyces servazzii could have been suppressed in the preserved batches, but was able to outgrow in batch D. The high acetic acid concentration in the unpreserved batch A and the competing yeast flora could have caused suppression of the contaminant in those samples.

`C=CCN=C=S` [AITC, allyl isothiocyanate] gave an MIC [1] of 38 µg/mL, an MIC [2] of 106 µg/mL and an MIC [3] of 143 µg/mL. The MIC [4] was greater than 700 µg/mL, the MIC [5] was 200 µg/mL and the MIC [6] was 235 µg/mL. It also gave an MIC [7] of 213 µg/mL, an MIC [8] of 196 µg/mL and an MIC [9] of 67 µg/mL. The MIC [10] was greater than 700 µg/mL, the MIC [11] was 412 µg/mL and the MIC [12] was 380 µg/mL. The “in vitro susceptibility of contaminant yeast (data not shown)” value [13] was “susceptibility”.
